Tests used:
[1] = molecular target: T1, human CCR5 (Homo sapiens, UniProt P51681); test: Evaluation of test compounds based on CCR5 antagonistic activity: inhibition of [125I]-RANTES binding to CCR5/CHO cells; settings: Test Compound 1 μM, 100 pM [125I]-RANTES, room temperature for 40 minutes, read-out: Inhibitory Rate (%)
T1 construct: expressed in transfected cells
Description: Cloning of CCR5 gene was carried out by a PCR method from human spleen cDNA. With using 0.5 ng of spleen cDNA (Toyobo, QUICK-Clone cDNA) as template, PCR was performed in DNA Thermal Cycler 480 (Perkin-Elmer) (reaction conditions: 30 cycles of 95° C. for 1 minute, 60° C. for 1 minute, and 75° C. for 5 minutes) by adding each 25 pmol of primers of a primer set, • SEQ ID NO.: 1 described in Test Example (1) of WO 99/32100 [length of sequence: 34; type of sequence: nucleic acid; strandedness: single; topology: straight; kind of sequence: other nucleic acid synthetic DNA, and • SEQ ID NO.: 2 described in Test Example (1) of WO 99/32100 [length of sequence: 34; type of sequence: nucleic acid; strandedness: single; topology: straight; kind of sequence: other nucleic acid synthetic DNA which were designed referring to nucleotide sequence of CCR5 gene reported by Samson et. al. (Biochemistry, 35(11), 3362-3367 (1996)) and by using TaKaRa EX Taq (Takara Shuzo). The resultant PCR product was subjected to agarose gel electrophoresis to collect about 1.0 kb DNA fragment, which was subjected to Original TA Cloning Kit (Funakoshi) to carry out cloning of CCR5 gene. (2) Preparation of Plasmid for Expression of Human CCR5
The plasmid obtained in the above (1) was digested with restriction enzymes XbaI (Takara Shuzo) and BamHI (Takara Shuzo) and subjected to agarose gel electrophoresis to collect about 1.0 kb DNA fragment.
The DNA fragment was mixed with plasmid pcDNA3.1 (Funakoshi) for expression in animal cells, said plasmid being digested with XbaI and BamHI, and they were ligated with DNA Ligation Kit Ver.2 (Takara Shuzo). The resulting plasmid was subjected to transformation of competent cell of E. coli JM109 (Takara Shuzo) to obtain plasmid pCKR5.
CHO-K1 cells were grown in 750 ml of tissue culture flask (Becton Dickinson) using Ham's F12 medium (Nihon Pharmaceutical) containing 10% fetal calf serum (Life Tech Oriental) and taken off with 0.5 g/L trypsin-0.2 g/L EDTA (Life Tech Oriental). The cells were washed with PBS (Life Tech Oriental), centrifuged (1000 rpm, 5 minutes), and suspended in PBS. With using Gene Pulser (Bio-Rad Laboratories), DNA was introduced into the cells under the conditions shown below. That is, to the cuvette of 0.4 cm gap were added 8×10^6 cells and 10 μg of plasmid pCKR5 for expression of human CCR5, and electroporation was carried out under 0.25 kV of voltage and 960 μF of capacitance. The cells were transferred into Ham's F12 medium containing 10% fetal calf serum, and cultivated for 24 hours. The cells were again taken off and centrifuged, and suspended in Ham's F12 medium containing 10% fetal calf serum and 500 μg/ml of geneticin (Life Tech Oriental). The suspension was diluted to give 10^4 cells/ml of the suspension, which was inoculated on a 96 well plate (Becton Dickinson) to give geneticin resistant cells.
The resulting geneticin resistant cells were cultivated in 96 well plate (Becton Dickinson), and cells expressing CCR5 were selected from the geneticin resistant cells. That is, in assay buffer (Ham's F12 medium containing 0.5% BSA and 20 mM HEPES (Wako Pure Chemical, pH7.2)) to which was added 200 pM of [^125I]-RANTES (Amersham) as a ligand, a binding reaction was carried out at room temperature for 46 minutes, and the buffer was washed with cooled PBS. To the buffer was added 50 μl/well of 1M NaOH, and the mixture was stirred. Radioactivity was determined with a y-counter to select CCR5/CHO cells which specifically bind to the ligand.
The CCR5/CHO cells were inoculated on 96 well microplate (5×10^4 cells/well) and cultivated for 24 hours. The medium was removed by means of suction, and to each well was added an assay buffer containing Test Compound (1 μM) and then 100 pM of [^125I]-RANTES (Amersham) as a ligand. A binding assay was carried out at room temperature for 40 minutes, and an assay buffer was removed by means of suction. […]

T1 sequence (P51681 whole entry): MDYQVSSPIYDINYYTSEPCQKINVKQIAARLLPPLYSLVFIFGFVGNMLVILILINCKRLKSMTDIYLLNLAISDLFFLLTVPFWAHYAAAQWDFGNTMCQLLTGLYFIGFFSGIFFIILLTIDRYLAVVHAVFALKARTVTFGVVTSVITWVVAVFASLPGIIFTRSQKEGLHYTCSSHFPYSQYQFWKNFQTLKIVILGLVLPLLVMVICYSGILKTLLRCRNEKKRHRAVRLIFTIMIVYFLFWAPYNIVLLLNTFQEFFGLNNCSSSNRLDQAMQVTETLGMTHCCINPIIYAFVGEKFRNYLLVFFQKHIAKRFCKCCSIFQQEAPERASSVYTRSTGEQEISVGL

Structure (SMILES)	melting point [°C]	inhibition at 1 µM [1] [%]
CCOc1cc(-c2ccc3c(c2)C=C(C(=O)Nc2ccc(CN(C)C4CCOCC4)cc2)CCN3C=O)ccc1OCCOC(C)C [Compound 23, 7-[3-ethoxy-4-(2-propoxy)ethoxyphenyl]-1-formyl-N-[4-[[N-methyl-N-(tetrahydro-2H-pyran-4-yl)amino]methyl]phenyl]-2,3-dihydro-1H-1-benzazepine-4-carboxamide]	117 to 119	97
CCCCOCCOc1ccc(-c2ccc3c(c2)C=C(C(=O)Nc2ccc(CN(C)C4CCOCC4)cc2)CCN3CCC)cc1 [Compound 27, 7-[4-(2-butoxyethoxy)phenyl]-N-[4-[[N-methyl-N-(tetrahydro-2H-pyran-4-yl)amino]methyl]phenyl]-1-propyl-2,3-dihydro-1H-1-benzazepine-4-carboxamide]	122 to 124	100
CCCCOCCOc1ccc(-c2ccc3c(c2)C=C(C(=O)Nc2ccc(CN(C)C4CCOCC4)cc2)CCN3c2csc(C)n2)cc1 [Compound 45, 7-[4-(2-butoxyethoxy)phenyl]-1-(2-methylthiazol-4-yl)-N-[4-[[N-methyl-N-(tetrahydro-2H-pyran-4-yl)amino]methyl]phenyl]-2,3-dihydro-1H-1-benzazepine-4-carboxamide]	115 to 123	100
CCCCOCCOc1ccc(-c2ccc3c(c2)C=C(C(=O)Nc2ccc(CN(C)C4CCOCC4)cc2)CCN3CC2CC2)cc1 [Compound 35, 7-[4-(2-butoxyethoxy)phenyl]-1-cyclopropylmethyl-N-[4-[[N-methyl-N-(tetrahydro-2H-pyran-4-yl)amino]methyl]phenyl]-2,3-dihydro-1H-1-benzazepine-4-carboxamide]	92 to 94	100
CCCCOCCOc1ccc(-c2ccc3c(c2)C=C(C(=O)Nc2ccc(CN(C)C4CCOCC4)cc2)CCN3CCCOC)cc1 [Compound 104, 7-[4-(2-butoxyethoxy)phenyl]-1-(3-methoxypropyl)-N-[4-[[N-methyl-N-(tetrahydropyran-4-yl)amino]methyl]phenyl]-2,3-dihydro-1H-1-benzazepine-4-carboxamide]	87 to 90	98
CCCCOCCOc1ccc(-c2ccc3c(c2)C=C(C(=O)Nc2ccc(CN(C)C4CCOCC4)cc2)CCN3Cc2ccsc2)cc1 [Compound 58, 7-(4-butoxyethoxyphenyl)-N-[4-[[N-methyl-N-(tetrahydropyran-4-yl)amino]methyl]phenyl]-1-(3-thienylmethyl)-2,3-dihydro-1-benzazepine-4-carboxamide]	122 to 123	99
CCCCOCCOc1ccc(-c2ccc3c(c2)C=C(C(=O)Nc2ccc(CN(C)C4CCOCC4)cc2)CCN3Cc2nnnn2C)cc1 [Compound 101, 7-[4-(2-butoxyethoxy)phenyl]-N-[4-[N-methyl-N-(tetrahydropyran-4-yl)aminomethyl]phenyl]-1-(1-methyltetrazol-5-ylmethyl)-2,3-dihydro-1-benzazepine-4-carboxamide]	132 to 135	100
CCCCOCCOc1ccc(-c2ccc3c(c2)C=C(C(=O)Nc2ccc(CN(C)C4CCOCC4)cc2)CCN3Cc2ccccc2)cc1 [Compound 33, 1-benzyl-7-[4-(2-butoxyethoxy)phenyl]-N-[4-[[N-methyl-N-(tetrahydro-2H-pyran-4-yl)amino]methyl]phenyl]-2,3-dihydro-1H-1-benzazepine-4-carboxamide]	127 to 131	98
CCCOCCOc1ccc(-c2ccc3c(c2)C=C(C(=O)Nc2ccc(CN(C)C4CCOCC4)cc2)CCN3CC(C)C)cc1 [Compound 84, 1-isobutyl-N-[4-[N-methyl-N-(tetrahydropyran-4-yl)aminomethyl]phenyl]-7-[4-(2-propoxyethoxy)phenyl]-2,3-dihydro-1-benzazepine-4-carboxamide]	–	97
C=CCN1CCC(C(=O)Nc2ccc(CN(C)C3CCOCC3)cc2)=Cc2cc(-c3ccc(OCCOCCC)cc3)ccc21 [Compound 49, 1-allyl-N-[4-[[N-methyl-N-(tetrahydropyran-4-yl)amino]methyl]phenyl]-7-(4-propoxyethoxyphenyl)-2,3-dihydro-1-benzazepine-4-carboxamide]	110 to 111	100
CCOCCCOc1ccc(-c2ccc3c(c2)C=C(C(=O)Nc2ccc(CN(C)C4CCOCC4)cc2)CCN3C=O)cc1 [Compound 2, 7-[4-(3-ethoxypropoxy)phenyl]-1-formyl-N-[4-[[N-methyl-N-(tetrahydro-2H-pyran-4-yl)amino]methyl]phenyl]-2,3-dihydro-1H-1-benzazepine-4-carboxamide]	166 to 169	96
CCCCOCCOc1ccc(-c2ccc3c(c2)C=C(C(=O)Nc2ccc(CN(C)C4CCOCC4)cc2)CCN3c2ccccc2)cc1 [Compound 39, 7-[4-(2-butoxyethoxy)phenyl]-1-phenyl-N-[4-[[N-methyl-N-(tetrahydro-2H-pyran-4-yl)amino]methyl]phenyl]-2,3-dihydro-1H-1-benzazepine-4-carboxamide]	–	98
CCCOCCOc1ccc(-c2ccc3c(c2)C=C(C(=O)Nc2ccc(CN(C)C4CCOCC4)cc2)CCN3CCC)cc1 [Compound 26, N-[4-[[N-methyl-N-(tetrahydro-2H-pyran-4-yl)amino]methyl]phenyl]-7-[4-(2-propoxyethoxy)phenyl]-1-propyl-2,3-dihydro-1H-1-benzazepine-4-carboxamide]	128 to 130	100
CCCCOCCOc1ccc(-c2ccc3c(c2)C=C(C(=O)Nc2ccc(CN(C)C4CCOCC4)cc2)CCN3c2ccc3c(c2)OCO3)cc1 [Compound 43, 7-[4-(2-butoxyethoxy)phenyl]-1-(3,4-methylenedioxyphenyl)-N-[4-[[N-methyl-N-(tetrahydro-2H-pyran-4-yl)amino)methyl]phenyl]-2,3-dihydro-1H-1-benzazepine-4-carboxamide]	–	100
C=CCN1CCC(C(=O)Nc2ccc(CN(C)C3CCOCC3)cc2)=Cc2cc(-c3ccc(OCCOCCCC)cc3)ccc21 [Compound 50, 1-allyl-7-(4-butoxyethoxyphenyl)-N-[4-[[N-methyl-N-(tetrahydropyran-4-yl)amino]methyl]phenyl]-2,3-dihydro-1-benzazepine-4-carboxamide]	103 to 104	100
CCCCOCCOc1ccc(-c2ccc3c(c2)C=C(C(=O)Nc2ccc(CN(C)C4CCCOC4)cc2)CCN3Cc2cnn(CC)c2)cc1 (centres unmarked) [Compound 79, 7-(4-butoxyethoxyphenyl)-1-[(1-ethylpyrazol-4-yl)methyl]-N-[4-[[N-methyl-N-(tetrahydropyran-5-yl)amino]methyl]phenyl]-2,3-dihydro-1-benzazepine-4-carboxamide]	–	100
CCCCOCCOc1ccc(-c2ccc3c(c2)C=C(C(=O)Nc2ccc(CN(C)C4CCOCC4)cc2)CCN3Cc2cnn(C)c2)cc1 [Compound 69, 7-(4-butoxyethoxyphenyl)-1-[(1-methylpyrazol-4-yl)methyl]-N-[4-[[N-methyl-N-(tetrahydropyran-4-yl)amino]methyl]phenyl]-2,3-dihydro-1-benzazepine-4-carboxamide]	–	100

— US6936602B1, “Benzazepine derivatives, process for the preparation of the same and uses thereof” (Takeda Chemical Industries, Ltd., priority 1999, dated 2005)
